Data as given in US12624027B2, “Salts and polymorphic forms of 6-chloro-7-(4-(4-chlorobenzyl)piperazin-1-yl)-2-(1,3-dimethyl-1H-pyrazol-4-yl)-3H-imidazo[4,5-b]pyridine” (ELLIPSES PHARMA LTD, priority 2020, dated 2026).
“Also recorded” adds a separate entry of the source. Counter-ions that a name gives are not always drawn. Like-named read-outs stand apart in the source and are kept apart here.

Assays:
Type in all cases: physicochemical
[1] = Aqueous solubility of Compound A salts (salt assessment)
Method: The mono-mesylate, di-mesylate, mono-hydrochloride, di-hydrochloride and fumarate salts of Compound A were assessed for compliance with the following properties identified by the inventors as being relevant to pharmaceutical suitability:
Aqueous solubility was determined by weighing out ˜3 mg of the salt form into a clean HPLC vial, adding HPLC grade water, shaking, vortexing, and/or sonicating to mix and aid dissolution as necessary. Once fully dissolved (clear solution) solubility is calculated based on the amount of water added. HPLC purity and DVS can be determined using methods described herein or methods known in the art. Processability is based on solubility of the salt form in certain excipients. Automated elemental analysis can be performed with 10 mg of the Compound A salt, using caffeine as a reference material. CHNX and the stoichiometry of the salt to the Compound A is determined. Dissolution was determined across 4 pH values (2.0, 3.8, 5.3, 7.2) using a Sirius T3 module, SOP 2070 and 2071, with 5 to 10 mg of Compound A salt compressed into a tablet disc.

[2] = Dynamic vapour sorption (DVS), hygroscopicity; conditions: for form change, hydration or dehydration after DVS (XRPD of recovered solids): after sorption/desorption cycles; for DVS uptake (weight increase): 25° C.
Method: Approximately, 10-20 mg of sample was placed into a mesh vapor sorption balance pan and loaded into a DVS Intrinsic dynamic vapour sorption balance by Surface Measurement Systems. The sample was subjected to a ramping profile from 40-90% relative humidity (RH) at 10% increments, maintaining the sample at each step until a stable weight had been achieved (dm/dt 0.004%, minimum step length 30 minutes, maximum step length 500 minutes) at 25° C. After completion of the sorption cycle, the sample was dried using the same procedure to 0% RH and then a second sorption cycle back to 40% RH. Two cycles were performed. The weight change during the sorption/desorption cycles were plotted, allowing for the hygroscopic nature of the sample to be determined. XRPD analysis was then carried out on any solid retained.

[3] = Thermodynamic solubility assessment in biological media (FaSSIF, FeSSIF, FaSSGF), HPLC of mother liquors
Method: The thermodynamic solubility of Compound A free base, Compound A fumarate Form 1 and Compound A hemi-fumarate Form 3 was assessed in 3 biological media: Fasted State Simulated Intestinal Fluid (FaSSIF); Fed State Simulated Intestinal Fluid (FeSSIF) and Fasted State Simulated Gastric Fluid (FaSSGF).
The following procedure was carried out. Approximately 10 mg of material was weighed into 3×1.5 mL glass vials. 0.02 mL aliquots of appropriate buffer were added to each vial until a final concentration of 10 mg/mL was obtained. The samples were then filtered via centrifugation and the mother liquors analyzed by HPLC.

[4] = Stability of the crystalline form in organic solvents and on handling (XRPD)
Method: XRPD analysis was carried out on a PANalytical X'pert pro with PIXcel detector (128 channels), scanning the samples between 3 and 35° 2θ. The material was gently ground to release any agglomerates and loaded onto a multi-well plate with Kapton or Mylar polymer film to support the sample. The multi-well plate was then placed into the diffractometer and analyzed using Cu K radiation (α1 λ=1.54060 Å; α2=1.54443 Å; β=1.39225 Å; α1:α2 ratio=0.5) running in transmission mode (step size 0.01300 2θ, step time 18.87 s) using 40 kV/40 mA generator settings. Data were visualized and images generated using the HighScore Plus 4.7 desktop application (PANalytical, 2017).
A slurry of Compound A fumarate lyophile is prepared by adding aliquots of solvent to the lyophile until a mobile slurry was observed. Solvents and volumes can be found in Table 1 below. The slurries are temperature cycled with agitation, between ambient (ca. 25° C.) and 40° C. in 4-hour cycles over 72 hours. Post-temperature cycling the samples were filtered via centrifugation. Isolated solids can be analysed by XRPD.

[5] = Stability of Form 1 on storage (appearance, HPLC, water content, XRPD)
Method: The stability of Form 1 was tested for compliance with the following stability acceptance criteria:
Form 1 was prepared as described in Example X above. The following amounts of Form 1 were weighed into 30 ml HDPE Nalgene containers:
Each container was placed into a small grip-seal bag and incubated at the conditions above.
Visual appearance and purity by HPLC were assessed periodically (at 0, 1, 3, 6, 9, 12, and 24 months). Water content was assessed at 0, 1, 6, and 12 months by Karl Fisher titration and TGA. XRPD spectra were taken at 0, 1, 3 and 6 months.

[6] = 1-week stability study of Form 3 (XRPD and HPLC)
Method: The stability of Compound A fumarate Form 3 was assessed under ambient and stressed conditions. The following procedure was carried out. Approximately 20 mg of material was added to 3×1.5 mL glass vials. The vials were then stored under the following conditions: • Ambient light and temperature (closed vial) • 40° C./75% RH (open vial) • 80° C. (closed vial)
After 1 week the samples were collected and analyzed by XRPD and HPLC.

[7] = Long term-storage stability of Form 7
[8] = Ambient light and temperature (closed vial)

Q: For `Cc1nn(C)cc1-c1nc2c(N3CCN(Cc4ccc(Cl)cc4)CC3)c(Cl)cnc2[nH]1` [Compound A fumarate, 6-chloro-7-(4-(4-chlorobenzyl)piperazin-1-yl)-2-(1,3-dimethyl-1H-pyrazol-4-yl)-3H-imidazo[4,5-b]pyridine], which solubility ([1]; HPLC grade water, water, thermodynamic from solid) is on record?
A: Its solubility is 50 to 4000 µg/mL.

Q: And the “hygroscopicity (in words)” value ([2]; listed as fumarate salt)?
A: The value was “unexpectedly low hygroscopicity”.

Q: And the “hygroscopicity (in words)” value ([2]; listed as fumarate salt of Compound A)?
A: Its value is “only slightly hygroscopic”.

Q: For `Cc1nn(C)cc1-c1nc2c(N3CCN(Cc4ccc(Cl)cc4)CC3)c(Cl)cnc2[nH]1` [Compound A mesylate, 6-chloro-7-(4-(4-chlorobenzyl)piperazin-1-yl)-2-(1,3-dimethyl-1H-pyrazol-4-yl)-3H-imidazo[4,5-b]pyridine], which “solubility compared to the free base of Compound A” value ([1]; aqueous) is on record?
A: Its value is “unexpectedly large increase in solubility”.

Q: With `Cc1nn(C)cc1-c1nc2c(N3CCN(Cc4ccc(Cl)cc4)CC3)c(Cl)cnc2[nH]1` [Form 1, 6-chloro-7-(4-(4-chlorobenzyl)piperazin-1-yl)-2-(1,3-dimethyl-1H-pyrazol-4-yl)-3H-imidazo[4,5-b]pyridine] as the compound, how does the “Concentration (thermodynamic solubility)” value ([3]; FaSSGF pH 1.6, listed as Compound A fumarate form 1) read?
A: The value was 3400 µg/mL.

Q: And the “Concentration (thermodynamic solubility)” value ([3]; FaSSIF pH 6.5, listed as Compound A fumarate form 1)?
A: Its value is “insoluble; also recorded: Below LOD”.

Q: And the “Concentration (thermodynamic solubility)” value ([3]; FeSSIF pH 5.0, listed as Compound A fumarate form 1)?
A: The value was 300 µg/mL.

Q: And the “form change, hydration or dehydration after DVS (XRPD of recovered solids)” value [2]?
A: The value was “No evidence of form change”.

Q: And the “DVS uptake as equivalents of water” value ([2]; at 90% RH)?
A: The value was 0.07 equivalents of water.

Q: What about the “DVS uptake (weight increase)” value ([2]; at 90% RH) of the same compound?
A: Its value is 0.7 wt. %.

Q: And the “change in form upon exposure to organic solvents (XRPD)” value ([4]; 1-butanol, 1-propanol, 2-ethoxyethanol, acetone, acetonitrile, MEK, THF, 1,1-dimethoxymethane, or DMSO)?
A: The value was “no change in form”.

Q: And the “changes in XRPD / form on storage” value ([5]; 0, 1, 3 and 6 months, ambient and accelerated conditions)?
A: The value was “no significant changes; also recorded: no changes in XRPD”.

Q: And the “levels of impurities (HPLC)” value ([5]; 5° C., 25° C./60% RH, 40° C./75% RH, 55° C., over 24 months)?
A: Its value is no more than 0.6%.

Q: What about the water content ([5]; after 12 months, Karl Fisher titration and TGA) of the same compound?
A: The water content was “below the limit of quantification”.

Q: And the changes in mass ([5]; storage at 5° C., 25° C./60% RH, 40° C./75% RH, 55° C.)?
A: The changes in mass was “negligible”.

Q: With `Cc1nn(C)cc1-c1nc2c(N3CCN(Cc4ccc(Cl)cc4)CC3)c(Cl)cnc2[nH]1` [Form 2, 6-chloro-7-(4-(4-chlorobenzyl)piperazin-1-yl)-2-(1,3-dimethyl-1H-pyrazol-4-yl)-3H-imidazo[4,5-b]pyridine] as the compound, how does the “change in form (XRPD peaks, spectra, unit cell)” value ([4]; 1,4-dioxane and lyophilisation conditions) read?
A: The value was “no change in the characteristic XRPD peaks, spectra, or unit cell”.

Q: For `Cc1nn(C)cc1-c1nc2c(N3CCN(Cc4ccc(Cl)cc4)CC3)c(Cl)cnc2[nH]1` [Form 3, 6-chloro-7-(4-(4-chlorobenzyl)piperazin-1-yl)-2-(1,3-dimethyl-1H-pyrazol-4-yl)-3H-imidazo[4,5-b]pyridine], which “Concentration (thermodynamic solubility)” value ([3]; FaSSGF pH 1.6, listed as Compound A fumarate form 3) is on record?
A: Its value is 2000 µg/mL.

Q: What about the “Concentration (thermodynamic solubility)” value ([3]; FaSSIF pH 6.5, listed as Compound A fumarate form 3) of the same compound?
A: The value was less than 100 µg/mL.

Q: And the solubility thermodynamic ([3]; FaSSIF, pH 6.5, fassif, thermodynamic from solid, FaSSIF pH 6.5, read-out: Concentration (thermodynamic solubility))?
A: Its solubility thermodynamic is less than 100 µg/mL.

Q: What about the “Concentration (thermodynamic solubility)” value ([3]; FeSSIF pH 5.0, listed as Compound A fumarate form 3) of the same compound?
A: Its value is less than 100 µg/mL.

Q: What about the “form change, hydration or dehydration after DVS (XRPD of recovered solids)” value [2] of the same compound?
A: The value was “No evidence of hydration or dehydration”.

Q: What about the “DVS uptake (weight increase)” value ([2]; at 90% RH) of the same compound?
A: The value was “ca. 0.5 wt. %”.

Q: What about the “change in form on handling in organic solvents (XRPD)” value (“change … in organic solvents (XRPD)” for short) ([4]; dimethoxymethane, 2-MeTHF, water:MeOH, EtOAc, IPA, MEK, MIBK, THF, acetone, acetonitrile) of the same compound?
A: The value was “without change in form”.

Q: And the “Purity (% area) after storage” value ([6]; 40° C./75% RH (open vial))?
A: Its value is 99.5 % area.

Q: And the “XRPD form after storage” value ([6]; 40° C./75% RH (open vial))?
A: The value was “Form 3”.

Q: What about the “Purity (% area) after storage” value ([6]; 80° C. (closed vial)) of the same compound?
A: The value was 99.6 % area.

Q: And the “XRPD form after storage” value ([6]; 80° C. (closed vial))?
A: The value was “Form 3”.

Q: And the “Purity (% area) after storage” value [6, 8]?
A: The value was 99.6 % area.

Q: What about the “XRPD form after storage” value [6, 8] of the same compound?
A: The value was “Form 3”.

Q: And the “changes in purity after storage” value ([6]; all three storage conditions)?
A: The value was “No changes in purity”.

Q: And the “visual changes after storage” value ([6]; all three storage conditions)?
A: The value was “No visual changes”.

Q: With `Cc1nn(C)cc1-c1nc2c(N3CCN(Cc4ccc(Cl)cc4)CC3)c(Cl)cnc2[nH]1` [Form 4, 6-chloro-7-(4-(4-chlorobenzyl)piperazin-1-yl)-2-(1,3-dimethyl-1H-pyrazol-4-yl)-3H-imidazo[4,5-b]pyridine] as the compound, how does the “stability in organic solvents (XRPD)” value ([4]; 1,4-dioxane) read?
A: Its value is “stable”.

Q: What about the “form change on drying” value ([4]; drying) of the same compound?
A: The value was “converts to Form 2”.

Q: With `Cc1nn(C)cc1-c1nc2c(N3CCN(Cc4ccc(Cl)cc4)CC3)c(Cl)cnc2[nH]1` [Form 5, 6-chloro-7-(4-(4-chlorobenzyl)piperazin-1-yl)-2-(1,3-dimethyl-1H-pyrazol-4-yl)-3H-imidazo[4,5-b]pyridine] as the compound, how does the “change … in organic solvents (XRPD)” value ([4]; benzyl alcohol) read?
A: The value was “without any change in form”.

Q: With `Cc1nn(C)cc1-c1nc2c(N3CCN(Cc4ccc(Cl)cc4)CC3)c(Cl)cnc2[nH]1` [Form 6, 6-chloro-7-(4-(4-chlorobenzyl)piperazin-1-yl)-2-(1,3-dimethyl-1H-pyrazol-4-yl)-3H-imidazo[4,5-b]pyridine] as the compound, how does the “change in form on handling in solvent (XRPD)” value ([4]; DMSO) read?
A: The value was “without any change in form”.

Q: Which “hygroscopicity (in words)” value [2] does the source give for `Cc1nn(C)cc1-c1nc2c(N3CCN(Cc4ccc(Cl)cc4)CC3)c(Cl)cnc2[nH]1` [Form 7, 6-chloro-7-(4-(4-chlorobenzyl)piperazin-1-yl)-2-(1,3-dimethyl-1H-pyrazol-4-yl)-3H-imidazo[4,5-b]pyridine] here?
A: Its value is “only slightly hygroscopic”.

Q: What about the “change … in organic solvents (XRPD)” value ([4]; methanol and TBME) of the same compound?
A: Its value is “without any change in form”.

Q: What about the “stability under long term-storage conditions” value [7] of the same compound?
A: The value was “stable”.

Q: Which “stability in organic solvents” value ([4]; benzyl alcohol) does the source give for `Cc1nn(C)cc1-c1nc2c(N3CCN(Cc4ccc(Cl)cc4)CC3)c(Cl)cnc2[nH]1` [Form 8, 6-chloro-7-(4-(4-chlorobenzyl)piperazin-1-yl)-2-(1,3-dimethyl-1H-pyrazol-4-yl)-3H-imidazo[4,5-b]pyridine] here?
A: Its value is “stable”.
